Tests used:
ROS1 [1] = target: T1, ROS1 (Homo sapiens, UniProt P08922); assay: ROS1 kinase inhibitory activity evaluation (mobility shift, EZ Reader II); assay type: biochemical; settings: ROS1 25 pg/μL, FL-Peptide 22 substrate, three separate measurements
T1 construct: purchased Carna Biosciences 08-163
Description: Next, a substrate reaction solution was prepared. […] Then, the reaction stop solution was added thereto at a concentration of 40 μL/well. Substrate phosphorylation intensity was measured using EZ Reader II (Caliper Life Sciences).

ROS1 [2] = target: T1, ROS1; assay: ROS1 autophosphorylation inhibitory activity evaluation (ADP-Glo); assay type: biochemical; settings: 200 nM inactive ROS1, ATP 1 mM, 25° C. 1.5 hours, ADP generated, four separate measurements
Outline: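 ROS1 autophosphorylation ran with 1 mM final ATP in 50 mM HEPES pH 7.5, 10 mM MgCl2, 0.01% Brij-58, 2.5 mM DTT for 1.5 h at 25° C. ADP generated was read by ADP-Glo luminescence. IC50 values were obtained by curve fitting.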

NTRK1 = target: T2, NTRK1 (Homo sapiens, UniProt P04629); assay: NTRK kinase enzyme inhibitory activity evaluation, NTRK1; assay type: biochemical; settings: FL-Peptide 27 substrate, ATP Km=33 μM, three separate measurements
T2 construct: purchased Carna Biosciences 08-186
T2 sequence (P04629 33-796): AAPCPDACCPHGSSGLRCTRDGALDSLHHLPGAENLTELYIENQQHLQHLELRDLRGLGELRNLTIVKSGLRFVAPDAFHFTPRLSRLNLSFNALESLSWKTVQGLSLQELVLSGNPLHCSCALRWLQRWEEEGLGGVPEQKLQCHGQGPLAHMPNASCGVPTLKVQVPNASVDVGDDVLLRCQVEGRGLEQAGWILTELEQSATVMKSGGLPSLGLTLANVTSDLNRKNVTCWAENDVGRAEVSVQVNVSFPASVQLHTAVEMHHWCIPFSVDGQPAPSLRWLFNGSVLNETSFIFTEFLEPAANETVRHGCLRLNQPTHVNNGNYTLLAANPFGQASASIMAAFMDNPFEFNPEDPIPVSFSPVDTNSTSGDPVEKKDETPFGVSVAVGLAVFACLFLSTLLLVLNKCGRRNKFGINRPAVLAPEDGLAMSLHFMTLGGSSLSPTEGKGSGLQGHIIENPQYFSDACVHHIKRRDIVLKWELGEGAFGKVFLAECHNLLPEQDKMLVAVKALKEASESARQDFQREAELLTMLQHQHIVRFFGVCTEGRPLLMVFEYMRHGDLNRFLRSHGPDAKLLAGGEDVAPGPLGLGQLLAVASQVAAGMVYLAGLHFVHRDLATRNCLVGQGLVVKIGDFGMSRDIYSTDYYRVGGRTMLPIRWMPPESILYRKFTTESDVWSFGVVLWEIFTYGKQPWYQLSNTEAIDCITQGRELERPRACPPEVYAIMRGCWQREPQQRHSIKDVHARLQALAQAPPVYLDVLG
Description: (§1) NTRK1, NTRK2, and NTRK3 kinase solutions were each prepared. […]; Next, a substrate reaction solution was prepared.
(§2) Subsequently, a reaction stop solution was prepared. The composition is as follows: 100 mM HEPES (pH 7.4), 0.015% Brij-35, 40 mM EDTA, and 0.1% Coating Reagent 3 (Caliper Life Sciences #760050).
(§3) The NTRK1, NTRK2, and NTRK3 kinase solutions were each added at a concentration of 19 μL/well to a 96-well plate. Each compound for evaluation dissolved in DMSO to achieve each final concentration was added to the plate, mixed using a plate mixer, and then preincubated at room temperature for 20 minutes. […] Then, the reaction stop solution was added thereto at a concentration of 40 μL/well. Substrate phosphorylation intensity was measured using EZ Reader II (Caliper Life Sciences). IC50 values were calculated by curve fitting using Microsoft Excel 2010 on the basis of data obtained from three separate measurements.

NTRK2 = target: T3, NTRK2 (Homo sapiens, UniProt Q16620); assay: NTRK kinase enzyme inhibitory activity evaluation, NTRK2; assay type: biochemical; settings: FL-Peptide 27 substrate, ATP Km=63 μM, three separate measurements
T3 construct: purchased Carna Biosciences 08-187
T3 sequence (Q16620 32-822): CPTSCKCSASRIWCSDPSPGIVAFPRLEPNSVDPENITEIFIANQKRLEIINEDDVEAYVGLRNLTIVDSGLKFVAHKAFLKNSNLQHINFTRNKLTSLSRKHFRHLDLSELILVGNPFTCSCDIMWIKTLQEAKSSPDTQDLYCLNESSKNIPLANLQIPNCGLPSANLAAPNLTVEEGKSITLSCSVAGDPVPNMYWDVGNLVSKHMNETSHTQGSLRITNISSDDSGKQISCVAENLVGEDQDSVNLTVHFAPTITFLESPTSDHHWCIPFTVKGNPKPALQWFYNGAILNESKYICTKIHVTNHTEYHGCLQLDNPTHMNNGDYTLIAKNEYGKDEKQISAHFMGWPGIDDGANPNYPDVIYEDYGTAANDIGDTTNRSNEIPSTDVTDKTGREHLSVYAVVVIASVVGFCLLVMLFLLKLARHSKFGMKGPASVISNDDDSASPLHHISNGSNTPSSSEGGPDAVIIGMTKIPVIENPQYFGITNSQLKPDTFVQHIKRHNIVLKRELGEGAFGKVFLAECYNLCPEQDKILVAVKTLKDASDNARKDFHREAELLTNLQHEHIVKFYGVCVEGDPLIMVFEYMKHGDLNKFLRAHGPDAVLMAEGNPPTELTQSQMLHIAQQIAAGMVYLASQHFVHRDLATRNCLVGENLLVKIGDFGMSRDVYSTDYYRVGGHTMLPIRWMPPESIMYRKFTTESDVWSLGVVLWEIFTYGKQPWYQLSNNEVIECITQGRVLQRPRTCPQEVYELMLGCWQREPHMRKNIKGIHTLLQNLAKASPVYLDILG
Description: as §1, §2, §3

NTRK3 = target: T4, NTRK3 (Homo sapiens, UniProt Q16288); assay: NTRK kinase enzyme inhibitory activity evaluation, NTRK3; assay type: biochemical; settings: FL-Peptide 27 substrate, ATP Km=32 μM, three separate measurements
T4 construct: purchased Carna Biosciences 08-197
T4 sequence (Q16288 32-839): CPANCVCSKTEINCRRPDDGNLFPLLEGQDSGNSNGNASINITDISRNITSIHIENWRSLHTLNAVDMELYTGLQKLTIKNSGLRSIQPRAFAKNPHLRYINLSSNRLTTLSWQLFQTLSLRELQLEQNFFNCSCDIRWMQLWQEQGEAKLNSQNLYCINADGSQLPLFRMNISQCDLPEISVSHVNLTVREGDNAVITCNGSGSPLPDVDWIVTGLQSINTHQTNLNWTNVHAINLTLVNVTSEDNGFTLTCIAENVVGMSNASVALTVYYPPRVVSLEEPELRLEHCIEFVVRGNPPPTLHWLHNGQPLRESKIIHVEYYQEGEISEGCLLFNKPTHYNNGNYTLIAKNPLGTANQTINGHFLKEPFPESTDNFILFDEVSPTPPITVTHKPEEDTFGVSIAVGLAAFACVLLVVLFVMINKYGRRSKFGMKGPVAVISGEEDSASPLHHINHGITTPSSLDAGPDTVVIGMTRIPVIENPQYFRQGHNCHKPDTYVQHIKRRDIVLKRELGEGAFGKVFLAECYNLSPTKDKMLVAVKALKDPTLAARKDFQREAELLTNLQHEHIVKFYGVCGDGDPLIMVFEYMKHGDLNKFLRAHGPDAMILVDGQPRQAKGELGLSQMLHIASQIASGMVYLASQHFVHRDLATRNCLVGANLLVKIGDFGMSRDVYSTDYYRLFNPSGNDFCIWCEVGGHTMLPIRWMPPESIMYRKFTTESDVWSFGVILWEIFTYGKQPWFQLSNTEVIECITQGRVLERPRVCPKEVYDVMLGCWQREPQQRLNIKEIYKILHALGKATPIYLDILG
Description: as §1, §2, §3

[3] = system: HCC78 cells having ROS1 fusion gene; assay: HCC78 cell growth assay (CellTiter-Glo); assay type: cell-based; settings: Homo sapiens, HCC78, 72 h, 72 hours culture, 2% FBS medium, luminescence, four separate measurements; read-out: growth inhibitory effect on HCC78 cells having ROS1 fusion gene IC50

T1 sequence (P08922 28-2347): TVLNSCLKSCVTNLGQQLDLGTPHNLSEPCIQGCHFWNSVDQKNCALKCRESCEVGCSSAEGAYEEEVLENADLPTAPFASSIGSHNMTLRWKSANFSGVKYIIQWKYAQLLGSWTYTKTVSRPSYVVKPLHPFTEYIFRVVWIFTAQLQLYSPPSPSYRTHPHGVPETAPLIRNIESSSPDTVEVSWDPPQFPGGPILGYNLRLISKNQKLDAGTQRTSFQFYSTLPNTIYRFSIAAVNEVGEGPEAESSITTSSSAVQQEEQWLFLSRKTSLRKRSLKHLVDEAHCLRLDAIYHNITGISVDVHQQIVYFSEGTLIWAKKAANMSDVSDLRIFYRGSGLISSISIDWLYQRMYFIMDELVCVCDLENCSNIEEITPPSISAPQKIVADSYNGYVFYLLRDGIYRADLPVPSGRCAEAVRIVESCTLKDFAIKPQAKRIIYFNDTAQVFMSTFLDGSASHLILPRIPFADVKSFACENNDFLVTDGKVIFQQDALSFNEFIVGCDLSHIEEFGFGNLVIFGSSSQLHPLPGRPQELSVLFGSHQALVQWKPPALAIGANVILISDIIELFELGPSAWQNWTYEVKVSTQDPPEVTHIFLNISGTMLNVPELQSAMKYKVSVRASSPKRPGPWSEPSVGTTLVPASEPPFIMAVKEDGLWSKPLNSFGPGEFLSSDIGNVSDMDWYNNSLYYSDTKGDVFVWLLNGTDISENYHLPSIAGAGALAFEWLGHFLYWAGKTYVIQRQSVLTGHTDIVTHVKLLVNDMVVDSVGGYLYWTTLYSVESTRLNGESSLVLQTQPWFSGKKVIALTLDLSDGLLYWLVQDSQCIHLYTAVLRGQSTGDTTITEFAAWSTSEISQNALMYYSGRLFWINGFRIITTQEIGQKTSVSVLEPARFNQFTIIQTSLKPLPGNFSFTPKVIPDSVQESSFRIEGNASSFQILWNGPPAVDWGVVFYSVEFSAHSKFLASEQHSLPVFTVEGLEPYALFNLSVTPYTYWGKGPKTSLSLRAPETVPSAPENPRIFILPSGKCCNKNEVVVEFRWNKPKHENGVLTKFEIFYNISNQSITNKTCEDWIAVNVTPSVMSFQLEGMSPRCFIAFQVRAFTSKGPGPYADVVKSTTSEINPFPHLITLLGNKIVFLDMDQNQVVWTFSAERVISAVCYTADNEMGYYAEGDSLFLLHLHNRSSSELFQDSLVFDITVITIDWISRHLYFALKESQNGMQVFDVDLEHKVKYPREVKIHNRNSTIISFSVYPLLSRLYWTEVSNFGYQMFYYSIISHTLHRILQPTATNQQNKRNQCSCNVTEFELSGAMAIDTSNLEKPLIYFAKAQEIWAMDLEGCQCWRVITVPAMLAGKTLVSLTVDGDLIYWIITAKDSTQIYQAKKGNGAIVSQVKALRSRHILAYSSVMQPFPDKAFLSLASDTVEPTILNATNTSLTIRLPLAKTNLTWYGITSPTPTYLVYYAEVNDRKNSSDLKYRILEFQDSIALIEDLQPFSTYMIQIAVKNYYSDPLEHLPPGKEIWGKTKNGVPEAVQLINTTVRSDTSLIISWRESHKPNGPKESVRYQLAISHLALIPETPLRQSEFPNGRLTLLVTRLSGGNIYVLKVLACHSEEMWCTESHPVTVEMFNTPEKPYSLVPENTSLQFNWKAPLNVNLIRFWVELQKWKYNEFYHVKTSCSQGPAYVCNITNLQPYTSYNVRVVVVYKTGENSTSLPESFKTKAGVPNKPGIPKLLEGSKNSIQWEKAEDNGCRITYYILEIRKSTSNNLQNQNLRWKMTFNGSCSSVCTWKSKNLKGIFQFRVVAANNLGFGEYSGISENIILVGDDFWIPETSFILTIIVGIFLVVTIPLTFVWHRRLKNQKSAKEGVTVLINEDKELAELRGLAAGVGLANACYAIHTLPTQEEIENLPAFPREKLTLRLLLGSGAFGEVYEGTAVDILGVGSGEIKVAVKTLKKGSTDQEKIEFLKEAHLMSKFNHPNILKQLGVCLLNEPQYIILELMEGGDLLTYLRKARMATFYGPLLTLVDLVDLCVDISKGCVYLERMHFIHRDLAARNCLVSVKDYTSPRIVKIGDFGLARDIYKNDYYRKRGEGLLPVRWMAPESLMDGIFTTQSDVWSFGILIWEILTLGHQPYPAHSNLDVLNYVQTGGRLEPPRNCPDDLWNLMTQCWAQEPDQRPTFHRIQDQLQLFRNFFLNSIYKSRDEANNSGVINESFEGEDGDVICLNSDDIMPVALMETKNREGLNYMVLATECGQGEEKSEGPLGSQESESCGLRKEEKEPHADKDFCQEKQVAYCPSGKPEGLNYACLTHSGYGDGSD

C[C@@H](Nc1ccc2ncc(-c3ccc(OC[C@@H]4CCN4)cc3)n2n1)c1cccc(F)c1 [Example 30, 3-[4-[[(2S)-Azetidin-2-yl]methoxy]phenyl]-N-[(1R)-1-(3-fluorophenyl)ethyl]imidazo[1,2-b]pyridazin-6-amine] was tested, and the IC50 (ROS1 [1]) was under 1 nM, the IC50 (ROS1 [2]) was under 20 nM and the IC50 (NTRK1) was under 5 nM. The IC50 (NTRK2) was under 10 nM, the IC50 (NTRK3) was under 5 nM and the IC50 [3] was under 20 nM.
C[C@@H](N)COc1ccc(-c2cnc3ccc(N[C@H](C)c4cccc(F)c4)nn23)cc1 [Example 21, 3-[4-[(2R)-2-Aminopropoxy]phenyl]-N-[(1R)-1-(3-fluorophenyl)ethyl]imidazo[1,2-b]pyridazin-6-amine] showed an IC50 (NTRK1) of under 5 nM, an IC50 (NTRK2) of under 10 nM and an IC50 (NTRK3) of under 5 nM. The IC50 [3] was under 20 nM.
With C[C@@H](Nc1ccc2ncc(-c3ccc(OC[C@@H]4CCCN4)cc3)n2n1)c1cccc(F)c1 [Example 24, N-[(1R)-1-(3-Fluorophenyl)ethyl]-3-[4-[[(2S)-pyrrolidin-2-yl]methoxy]phenyl]imidazo[1,2-b]pyridazin-6-amine] the IC50 (ROS1 [1]) was under 1 nM, the IC50 (ROS1 [2]) was under 20 nM and the IC50 (NTRK1) was under 5 nM. The IC50 (NTRK2) was under 10 nM, the IC50 (NTRK3) was under 5 nM and the IC50 [3] was 20 to 100 nM.
With C[C@H](N)COc1ccc(-c2cnc3ccc(N[C@H](C)c4cccc(F)c4)nn23)cc1 [Example 41, 3-[4-[(2S)-2-Aminopropoxy]phenyl]-N-[(1R)-1-(3-fluorophenyl)ethyl]imidazo[1,2-b]pyridazin-6-amine] the IC50 (NTRK1) was under 5 nM, the IC50 (NTRK2) was under 10 nM and the IC50 (NTRK3) was under 5 nM. The IC50 [3] was under 20 nM.
With C[C@@H](Nc1ccc2ncc(-c3ccc(N4C[C@@H](N)CC4=O)cc3)n2n1)c1cccc(F)c1 [Example 90, (4S)-4-Amino-1-[4-[6-[[(1R)-1-(3-fluorophenyl)ethyl]amino]imidazo[1,2-b]pyridazin-3-yl]phenyl]pyrrolidin-2-one] the IC50 (ROS1 [1]) was under 1 nM, the IC50 (ROS1 [2]) was under 20 nM and the IC50 (NTRK1) was under 5 nM. The IC50 (NTRK2) was under 10 nM, the IC50 (NTRK3) was under 5 nM and the IC50 [3] was under 20 nM.
Work on CNCCOc1ccc(-c2cnc3ccc(N[C@H](C)c4cccc(F)c4)nn23)cc1 [Example 29, N-[(1R)-1-(3-Fluorophenyl)ethyl]-3-[4-[2-(methylamino)ethoxy]phenyl]imidazo[1,2-b]pyridazin-6-amine] yielded an IC50 (ROS1 [1]) of under 1 nM, an IC50 (ROS1 [2]) of under 20 nM and an IC50 (NTRK1) of under 5 nM. For the same compound, the IC50 (NTRK2) was under 10 nM, the IC50 (NTRK3) was under 5 nM and the IC50 [3] was under 20 nM.
C[C@@H](Oc1ccc2ncc(-c3ccc(N4C[C@@H](N)CC4=O)nc3)n2n1)c1cccc(F)c1 [Example 127, (4S)-4-Amino-1-[5-[6-[(1R)-1-(3-fluorophenyl)ethoxy]imidazo[1,2-b]pyridazin-3-yl]-2-pyridyl]pyrrolidin-2-one] gave an IC50 (ROS1 [1]) of under 1 nM, an IC50 (ROS1 [2]) of under 20 nM and an IC50 (NTRK1) of 10 to 15 nM. It also gave an IC50 (NTRK2) of 20 to 25 nM, an IC50 (NTRK3) of 5 to 10 nM and an IC50 [3] of 20 to 100 nM.
COc1cc(N2C[C@@H](N)CC2=O)ccc1-c1cnc2ccc(N(C)Cc3cccc(F)c3)nn12 [Example 85, (4S)-4-Amino-1-[4-[6-[(3-fluorophenyl)methyl-methylamino]imidazo[1,2-b]pyridazin-3-yl]-3-methoxyphenyl]pyrrolidin-2-one] showed an IC50 (ROS1 [1]) of 1 to 10 nM, an IC50 (ROS1 [2]) of under 20 nM and an IC50 (NTRK1) of under 5 nM. The IC50 (NTRK2) was under 10 nM, the IC50 (NTRK3) was under 5 nM and the IC50 [3] was 20 to 100 nM.
Compound CN(Cc1cccc(F)c1)c1ccc2ncc(-c3ccc(N4C[C@@H](N)CC4=O)cc3)n2n1 [Example 81, (4S)-4-Amino-1-[4-[6-[(3-fluorophenyl)methyl-methylamino]imidazo[1,2-b]pyridazin-3-yl]phenyl]pyrrolidin-2-one] has an IC50 (ROS1 [1]) of under 1 nM, an IC50 (ROS1 [2]) of under 20 nM and an IC50 (NTRK1) of under 5 nM. It also gave an IC50 (NTRK2) of under 10 nM, an IC50 (NTRK3) of under 5 nM and an IC50 [3] of under 20 nM.
Work on CNC(C)COc1ccc(-c2cnc3ccc(N[C@H](C)c4cccc(F)c4)nn23)cc1 (stereo partly drawn) [Example 38, N-[(1R)-1-(3-Fluorophenyl)ethyl]-3-[4-[2-(methylamino)propoxy]phenyl]imidazo[1,2-b]pyridazin-6-amine] yielded an IC50 (ROS1 [1]) of under 1 nM, an IC50 (ROS1 [2]) of under 20 nM and an IC50 [3] of under 20 nM.
Work on CN(Cc1ccccc1)c1ccc2ncc(-c3ccc(N4C[C@@H](N)CC4=O)cc3)n2n1 [Example 94, (4S)-4-Amino-1-[4-[6-[benzyl(methyl)amino]imidazo[1,2-b]pyridazin-3-yl]phenyl]pyrrolidin-2-one] yielded an IC50 (ROS1 [1]) of 1 to 10 nM, an IC50 (ROS1 [2]) of 20 to 100 nM and an IC50 [3] of 100 to 600 nM.
C[C@@H](Nc1ccc2ncc(-c3ccc(OCCN(C)C)nc3)n2n1)c1cccc(F)c1 [Example 71, 3-[6-(2-Dimethylaminoethoxy)-3-pyridyl]-N-[(1R)-1-(3-fluorophenyl)ethyl]imidazo[1,2-b]pyridazin-6-amine] gave an IC50 (ROS1 [1]) of 1 to 10 nM, an IC50 (ROS1 [2]) of under 20 nM and an IC50 [3] of under 20 nM.
NCCOc1ccc(-c2cnc3ccc(OCc4cccc(F)c4)nn23)cc1 [Example 14, 2-[4-[6-[(3-Fluorophenyl)methoxy]imidazo[1,2-b]pyridazin-3-yl]phenoxy]ethanamine] showed an IC50 (ROS1 [1]) of 1 to 10 nM, an IC50 (ROS1 [2]) of 20 to 100 nM and an IC50 [3] of 100 to 600 nM.
With C[C@@H](Nc1ccc2ncc(-c3cccc(N4C[C@@H](N)CC4=O)c3)n2n1)c1cccc(F)c1 [Example 91, (4S)-4-Amino-1-[3-[6-[[(1R)-1-(3-fluorophenyl)ethyl]amino]imidazo[1,2-b]pyridazin-3-yl]phenyl]pyrrolidin-2-one] the IC50 (ROS1 [1]) was 1 to 10 nM, the IC50 (ROS1 [2]) was under 20 nM and the IC50 [3] was 20 to 100 nM.
In the case of Cc1cc(N2C[C@@H](N)CC2=O)ccc1-c1cnc2ccc(N[C@H](C)c3ccccc3)nn12 [Example 89, (4S)-4-Amino-1-[3-methyl-1-[6-[[(1R)-1-phenylethyl]amino]imidazo[1,2-b]yl]phenyl]pyrrolidin-2-one], the IC50 (ROS1 [1]) is reported as 10 to 60 nM, the IC50 (ROS1 [2]) is reported as 20 to 100 nM and the IC50 [3] is reported as 100 to 600 nM.
CC(Oc1ccc2ncc(-c3ccc(N4C[C@@H](N)CC4=O)cc3)n2n1)c1cncc(F)c1 (stereo partly shown) [Example 107] gave an IC50 (ROS1 [1]) of under 1 nM, an IC50 (ROS1 [2]) of under 20 nM and an IC50 [3] of under 20 nM.
In the case of C[C@@H](Oc1ccc2ncc(-c3ccc(N4C[C@@H](N)CC4=O)cc3)n2n1)c1cccc(F)c1 [Example 79, (4S)-4-Amino-1-[4-[6-[(1R)-1-(3-fluorophenyl)ethoxy]imidazo[1,2-b]pyridazin-3-yl]phenyl]pyrrolidin-2-one], the IC50 (ROS1 [1]) is reported as under 1 nM, the IC50 (NTRK1) is reported as under 5 nM and the IC50 (NTRK2) is reported as under 10 nM. For the same compound, the IC50 (NTRK3) was under 5 nM and the IC50 [3] was under 20 nM.
C[C@@H](Oc1ccc2ncc(-c3ccc(N4C[C@@H](N(C)C)CC4=O)cc3)n2n1)c1cccc(F)c1 [Example 135, (4S)-4-(Dimethylamino)-1-[4-[6-[(1R)-1-(3-fluorophenyl)ethoxy]imidazo[1,2-b]pyridazin-3-yl]phenyl]pyrrolidin-2-one] was tested, and the IC50 (ROS1 [1]) was 1 to 10 nM, the IC50 (ROS1 [2]) was 20 to 100 nM and the IC50 [3] was 100 to 600 nM.

Reference: patent US9751887B2, “Imidazo[1,2-b]pyridazine derivatives as kinase inhibitors” (Daiichi Sankyo Company, Limited, priority 2012, dated 2017)
